Data taken from patent US20210214713A9, “METHODS FOR EXPERIMENTAL EVOLUTION OF NATURAL AND SYNTHETIC MICROBES” (priority 2017, published 2021).
Where two headings read alike, the source gives them in different places.

Tests used:
[1] = test system: haploid and diploid yeast populations (ySK116, ySK743, ySK116x743); assay type: cell-based, S. cerevisiae; conditions: 30° C., OD 0.25-0.3, over the 20 h following drug addition
Description: Single colonies of fluorescently labelled haploid MATα (ySK116), fluorescently labelled haploid MATα (ySK743), and fluorescently labelled diploid control (ySK116x743) cells were grown overnight in YPD. These overnights were used to seed three eVOLVER vials at OD 0.05 (containing YPAD+50 ug/mL carbenicillin+25 ug/mL chloramphenicol). Cells were maintained at 30° C. in a density window of OD 0.25-0.3 for several generations in order to measure a baseline growth rate. At 16 h post-inoculation, cells from each haploid population were transferred by the vial-to-vial transfer device into the same fresh vial containing YPAD in order to create a new pre-drug to diploid population.
Next, cyclohexamide (CHX) was added to the haploid MATα vial, ketoconazole (KETO) was added to the MATα vial, and both drugs were added to the diploid control. Using the media selection portion of the vial-to-vial transfer device, 1 mL aliquots of media at 20× drug concentration were used to achieve a step-function transition to the final 1× drug concentration in each vial (0.2 ug/mL CHX for MATα, 6 ug/mL KETO for MATα, 0.2 ug/mL CHX+6 ug/mL KETO for the diploid control).

[2] = test system: diploid pool samples yBW003, yBW008, yBW009; assay: Growth rate assay to evaluate antifungal resistance of diploid pools in eVOLVER; assay type: cell-based, S. cerevisiae; conditions: 6 ug/mL KETO only, seeded at OD 0.1, 30° C., 24 h without dilution
Description: As an alternative metric to evaluate performance of the diploids formed during the experiment, a growth rate assay was performed in media containing each drug in isolation or combination. Three diploid pool samples were assayed: yBW003 from to, yBWOO8 from t1, and yBW009 from t2. 100 uL of each frozen stock created from post-selection cultures was thawed, added to 2 mL YPAD and then grown in culture tubes in a shaking incubator for 16 h at 30° C. These cultures were used to seed duplicate eVOLVER vials containing media with one of four drug conditions (no drug, 0.2 ug/mL CHX only, 6 ug/mL KETO only, both 0.2 ug/mL CHX+6 ug/mL KETO) at an initial density of OD 0.1. Each vial received an estimated 3.2×10^7 cells from the non-clonal population that comprised each sample pool. Cultures were maintained in eVOLVER at 30° C. for 24 h without dilution, while tracking density continuously. Growth rate was calculated for each culture over the density range OD 0.2-0.8 (FIG. 43).

| SMILES | Growth rate relative to its original (pre-drug) value ([1]; 0.2 ug/mL CHX, haploid vial (founder ySK116)) | Growth rate relative to its original (pre-drug) value ([1]; 6 ug/mL KETO, haploid MATα vial (founder ySK743)) | Effect on growth rate of diploid pools [2] |
| --- | --- | --- | --- |
| C[C@@H]1C[C@@H]([C@H](O)CC2CC(=O)NC(=O)C2)C(=O)[C@@H](C)C1 [CHX, cyclohexamide] | roughly 10% |  |  |
| CC(=O)N1CCN(c2ccc(OCC3COC(Cn4ccnc4)(c4ccc(Cl)cc4Cl)O3)cc2)CC1 (stereo not drawn) [KETO, ketoconazole] |  | roughly 10% | not observed to significantly affect the growth rate |
